Measured values taken from the CheMixHub ionic liquid set.

Experiment: xn = mol fraction of the nth substance listed

CC[NH+](CC)CC.O=P([O-])(O)O + CS(C)=O
viscosity [mPa·s], 101 kPa
Conditions | 298.15 K | 303.15 K | 308.15 K
x2 = 0 | 64.3 | 57.1 | 49.5
x2 = 0.0242 | 61.3 | 54.6 | 47.55
x2 = 0.0507 | 58.2 | 51.7 | 45.51
x2 = 0.1295 | 49.7 | 44.43 | 39.41
x2 = 0.1963 | 43.47 | 38.82 | 34.74
x2 = 0.2596 | 37.82 | 34.13 | 30.67
x2 = 0.3272 | 32.61 | 29.61 | 26.81
x2 = 0.3878 | 28.47 | 26.13 | 23.64
x2 = 0.4494 | 24.64 | 22.94 | 20.75
x2 = 0.5141 | 21.1 | 19.68 | 17.92
x2 = 0.5888 | 17.29 | 16.43 | 14.93
x2 = 0.6387 | 15 | 14.42 | 13.14
x2 = 0.7055 | 12.26 | 11.95 | 10.82
x2 = 0.7616 | 10.18 | 9.98 | 9.01
x2 = 0.8342 | 7.58 | 7.36 | 6.75
x2 = 0.8828 | 5.7 | 5.6 | 5.23
x2 = 0.9272 | 4.37 | 4.24 | 3.84
x2 = 0.9543 | 3.31 | 3.2 | 2.98
x2 = 0.9772 | 2.7 | 2.56 | 2.33

CCCC[n+]1ccn(C)c1.O=[N+]([O-])[O-] + CCO
101 kPa
Conditions | viscosity [mPa·s]
283.15 K, x2 = 0.447 | 35.48
288.15 K, x2 = 0.352 | 51.47
288.15 K, x2 = 0.663 | 9.58
288.15 K, x2 = 0.748 | 6.39
293.15 K, x2 = 0.254 | 67.9
293.15 K, x2 = 0.4 | 31.2
293.15 K, x2 = 0.748 | 5.61
298.15 K, x2 = 0 | 159
298.15 K, x2 = 0.11 | 105.5
298.15 K, x2 = 0.2 | 58.3
298.15 K, x2 = 0.663 | 7.62
298.15 K, x2 = 0.748 | 4.83
303.15 K, x2 = 0.447 | 16.15
303.15 K, x2 = 0.6 | 10.1
303.15 K, x2 = 0.852 | 2.46
308.15 K, x2 = 0.11 | 59.6
308.15 K, x2 = 0.2 | 38.6
308.15 K, x2 = 0.352 | 21.4
308.15 K, x2 = 0.663 | 5.77
313.15 K, x2 = 0.11 | 47.55
313.15 K, x2 = 0.2 | 32.1
313.15 K, x2 = 0.254 | 29.2
318.15 K, x2 = 0.2 | 26.9
318.15 K, x2 = 0.254 | 24.53
318.15 K, x2 = 0.4 | 14.2
318.15 K, x2 = 0.852 | 1.9
328.15 K, x2 = 0.447 | 7.87
333.15 K, x2 = 0.254 | 15.52

CCCC[n+]1ccn(C)c1.O=[N+]([O-])[O-] + CCCCCO
100 kPa
Conditions | viscosity [mPa·s]
293.15 K, x1 = 0.4363 | 18.2
293.15 K, x1 = 0.5668 | 29.3
293.15 K, x1 = 0.7481 | 61
313.15 K, x1 = 0.6481 | 18.9
313.15 K, x1 = 0.8416 | 38.7
313.15 K, x1 = 0.9415 | 57.5
323.15 K, x1 = 0.0824 | 2.22
323.15 K, x1 = 0.9415 | 35.5

CN(C)CCO + CCCC[n+]1ccn(C)c1.F[P-](F)(F)(F)(F)F
101 kPa
Conditions | electrical conductivity [S/m] | viscosity [mPa·s]
288.15 K, x1 = 0.3182 | 0.1534 | 120
288.15 K, x1 = 0.3764 | 0.1645 | –
288.15 K, x1 = 0.5166 | 0.1918 | 63
288.15 K, x1 = 0.709 | 0.211 | 29
288.15 K, x1 = 0.8063 | 0.1998 | 18
293.15 K, x1 = 0.2143 | 0.187 | 117
293.15 K, x1 = 0.4405 | – | 61
293.15 K, x1 = 0.4637 | 0.237 | –
293.15 K, x1 = 0.5166 | 0.25 | 48
293.15 K, x1 = 0.8063 | 0.245 | 14.6
298.15 K, x1 = 0.1221 | 0.211 | 117
298.15 K, x1 = 0.4637 | 0.308 | –
298.15 K, x1 = 0.9128 | 0.1874 | 6.7
298.15 K, x1 = 1 | – | 3.8
303.15 K, x1 = 0.3764 | 0.369 | –
303.15 K, x1 = 0.4405 | – | 36
303.15 K, x1 = 0.8063 | 0.355 | 9.7
308.15 K, x1 = 0.4405 | – | 28
308.15 K, x1 = 0.4637 | 0.483 | –
313.15 K, x1 = 0.605 | 0.611 | 14
318.15 K, x1 = 0.3764 | 0.679 | –
323.15 K, x1 = 0.3764 | 0.792 | –
323.15 K, x1 = 0.5166 | 0.849 | 12.7
323.15 K, x1 = 1 | – | 2.04

CCCCCC[n+]1ccn(C)c1.C[C@H](N)C(=O)[O-] + O
viscosity [mPa·s], 100 kPa
Conditions | 288.15 K | 293.15 K | 298.15 K | 303.15 K | 308.15 K | 313.15 K | 318.15 K | 323.15 K | 328.15 K
x1 = 0.000299 | 1.156 | 1.017 | 0.902 | 0.809 | 0.728 | 0.661 | 0.603 | 0.554 | 0.512
x1 = 0.0003981 | 1.162 | 1.022 | 0.907 | 0.813 | 0.732 | 0.664 | 0.606 | 0.557 | 0.514
x1 = 0.0004989 | 1.167 | 1.026 | 0.911 | 0.816 | 0.735 | 0.666 | 0.608 | 0.559 | 0.516
x1 = 0.0009991 | 1.203 | 1.057 | 0.937 | 0.838 | 0.755 | 0.684 | 0.626 | 0.573 | 0.53
x1 = 0.003 | 1.361 | 1.191 | 1.05 | 0.933 | 0.833 | 0.754 | 0.684 | 0.626 | 0.576
x1 = 0.00499 | 1.512 | 1.325 | 1.162 | 1.027 | 0.916 | 0.825 | 0.745 | 0.681 | 0.625
x1 = 0.006965 | 1.656 | 1.445 | 1.272 | 1.118 | 0.997 | 0.893 | 0.805 | 0.736 | 0.672
x1 = 0.008965 | 1.819 | 1.573 | 1.367 | 1.202 | 1.069 | 0.958 | 0.866 | 0.781 | 0.717
x1 = 0.01103 | 1.954 | 1.694 | 1.475 | 1.287 | 1.145 | 1.026 | 0.928 | 0.831 | 0.763
x1 = 0.01294 | 2.097 | 1.814 | 1.577 | 1.377 | 1.223 | 1.087 | 0.984 | 0.887 | 0.807
x1 = 0.01501 | 2.242 | 1.953 | 1.69 | 1.466 | 1.303 | 1.161 | 1.035 | 0.936 | 0.854
x1 = 0.01801 | 2.455 | – | – | – | – | – | – | – | –

CCCCCn1cc[n+](C)c1.O=S(=O)([N-]S(=O)(=O)C(F)(F)F)C(F)(F)F + O
100 kPa, x2 = 0.2211
Conditions | viscosity [mPa·s]
313.15 K | 22.15
318.15 K | 18.86

CCCC[n+]1ccn(C)c1.O=[N+]([O-])[O-] + O
Conditions | viscosity [mPa·s]
295.15 K, 101 kPa, x2 = 0.1659 | 73
308 K, 100 kPa, x1 = 0.4463 | 14.67
308 K, 100 kPa, x1 = 0.6298 | 29.49
313 K, 100 kPa, x1 = 0.05634 | 1.464
313 K, 100 kPa, x1 = 0.08219 | 2.196
313 K, 100 kPa, x1 = 0.2637 | 6.31

CCCCCC[n+]1ccn(C)c1.O=[N+]([O-])[O-] + CCCCCCCO
Conditions | viscosity [mPa·s]
293.15 K, 100 kPa, x1 = 0.4392 | 100.5

CC(=O)[O-].CN1CCCN2CCC[NH+]=C12 + O
101.3 kPa
Conditions | viscosity [mPa·s]
278.2 K, x1 = 0.405 | 1800
283.2 K, x1 = 0.103 | 33
283.2 K, x1 = 0.206 | 204
283.2 K, x1 = 0.494 | 1496
283.2 K, x1 = 0.604 | 1825
293.2 K, x1 = 0.405 | 378
298.2 K, x1 = 0.301 | 144.9
298.2 K, x1 = 0.494 | 339.1
303.2 K, x1 = 0.301 | 99.8
303.2 K, x1 = 0.604 | 259.2
308.2 K, x1 = 0.206 | 32.5
308.2 K, x1 = 0.301 | 70.9
313.2 K, x1 = 0.301 | 51.8
313.2 K, x1 = 0.494 | 109
318.2 K, x1 = 0.301 | 39.02
318.2 K, x1 = 0.494 | 79.4
323.2 K, x1 = 0.604 | 66.33
333.2 K, x1 = 0.206 | 10.12
338.2 K, x1 = 0.494 | 28.19
343.2 K, x1 = 0.103 | 2.76
353.2 K, x1 = 0.301 | 8.98
358.2 K, x1 = 0.103 | 1.97
358.2 K, x1 = 0.206 | 4.58
358.2 K, x1 = 0.604 | 14.29
363.2 K, x1 = 0.604 | 12.16
368.2 K, x1 = 0.103 | 1.62
368.2 K, x1 = 0.604 | 10.46
373.2 K, x1 = 0.103 | 1.5
373.2 K, x1 = 0.301 | 5.14
373.2 K, x1 = 0.604 | 9.11
